From patent publication US20260138969A1 (Korea Research Institute of Chemical Technology, priority 2023, published 2026)

Key:
[1] = system: α-Syn transgenic Parkinson's disease mouse model; assay: α-Syn transgenic Parkinson's disease mouse model: step error (beam test); type: in vivo; conditions: at 7 and 9 months; Memantine 10 mg/kg, Example 3 2/10/50 mg/kg, Example 2 2 mg/kg PO QD; vs G2
Procedure: (§1) The test drug was administered once daily (QD) via oral administration (PO) with a solution of 5 ml/kg for 5 months from 4 months to 9 months of age. Motor behavior tests (beam test) and neurological scores (modified Irwin test) were performed at 4 months (before administration), 7 months, and 9 months. After the final behavioral test, tissue samples were taken. Weight was measured on the same day once a week from 4 months of age until the end of the study.
The procedure described by Fleming et al. (J Neurosci, 24:9434-40, 2004) was adopted as the beam test (Challenging Beam Traversal). Exercise capacity was measured with a new beam test that was a modification of the existing beam walking test. The beam is made of Plexiglas and consists of four sections (each 25 cm and a total length of 1 m), each with a different width. The beam is designed to start at 3.5 cm wide and gradually narrow in increments of 0.5 cm×1 cm. A shelf 1 cm wide was placed 1.0 cm below the top surface of the beam.
The mouse was trained to cross the length of the beam, starting from the widest section and ending with the narrowest and most difficult section. The narrow end of the beam is designed to connect directly to the mouse's house cage. The mice were trained for two days before testing, and all training was carried out without a mesh grid. On the first day, two auxiliary exercises were performed, in which the mouse was placed on a beam and the home cage was placed close to the mouse. This induces it to move forward along the beam. […]
The error was counted if the limb (front or hind leg) passed through the grid during forward movement and was visible between the grid and the beam surface. […] Error was measured by scoring each limb slippage individually. For example, a mouse with three limbs slipping off the grid in one step was rated with an error score of 3 points, while a mouse with only one limb slipped off the grid in one step was evaluated with an error score of 1 in that step. […] The number of step errors and the time it took to cross were measured and averaged in all five experiments.

[2] = system: α-Syn transgenic Parkinson's disease mouse model; assay: α-Syn transgenic Parkinson's disease mouse model: microglial reduction (Iba-1); type: in vivo; conditions: 9 months of age; Memantine 10 mg/kg (G3), G4 2 mg/kg, G5 10 mg/kg, G7 2 mg/kg PO QD
Procedure: as §1
At 9 months of age, the measurement period ended, the mice were anesthetized, and then the experiment was terminated by cardiac puncture according to IACUC guidelines. Mice were perfused transcardially with 0.9% saline for tissue staining, followed by 4% paraformaldehyde until the mice were fixed. The brains were isolated and immobilized by soaking in 4% paraformaldehyde at 4° C. for 24 hours, followed by 30% sucrose added to PBS containing 0.02% sodium azide and stored at 4° C. for 3 days. Brain samples embedded in OCT compounds were sectioned to a thickness of 20 μm using Leica CM1950 (Leica Microsystems, Germany). The sections were stored at 4° C. in a preservation solution until they were stained by antibodies. […]
To assess microgliosis of the cortex, Iba-1-stained brain tissue was imaged in experimental example 10.5 using an immunofluorescence microscope (Olympus, BZ21) in Olympus. Each marker was manually counted to quantify Iba1.

[3] = biological target: T1, recombinant human ASK1 protein (Homo sapiens, UniProt Q99683); assay: Evaluation of ASK1 inhibition activity ([gamma-33P]-ATP, scintillation counting); type: biochemical
T1 sequence (Q99683 1-1374): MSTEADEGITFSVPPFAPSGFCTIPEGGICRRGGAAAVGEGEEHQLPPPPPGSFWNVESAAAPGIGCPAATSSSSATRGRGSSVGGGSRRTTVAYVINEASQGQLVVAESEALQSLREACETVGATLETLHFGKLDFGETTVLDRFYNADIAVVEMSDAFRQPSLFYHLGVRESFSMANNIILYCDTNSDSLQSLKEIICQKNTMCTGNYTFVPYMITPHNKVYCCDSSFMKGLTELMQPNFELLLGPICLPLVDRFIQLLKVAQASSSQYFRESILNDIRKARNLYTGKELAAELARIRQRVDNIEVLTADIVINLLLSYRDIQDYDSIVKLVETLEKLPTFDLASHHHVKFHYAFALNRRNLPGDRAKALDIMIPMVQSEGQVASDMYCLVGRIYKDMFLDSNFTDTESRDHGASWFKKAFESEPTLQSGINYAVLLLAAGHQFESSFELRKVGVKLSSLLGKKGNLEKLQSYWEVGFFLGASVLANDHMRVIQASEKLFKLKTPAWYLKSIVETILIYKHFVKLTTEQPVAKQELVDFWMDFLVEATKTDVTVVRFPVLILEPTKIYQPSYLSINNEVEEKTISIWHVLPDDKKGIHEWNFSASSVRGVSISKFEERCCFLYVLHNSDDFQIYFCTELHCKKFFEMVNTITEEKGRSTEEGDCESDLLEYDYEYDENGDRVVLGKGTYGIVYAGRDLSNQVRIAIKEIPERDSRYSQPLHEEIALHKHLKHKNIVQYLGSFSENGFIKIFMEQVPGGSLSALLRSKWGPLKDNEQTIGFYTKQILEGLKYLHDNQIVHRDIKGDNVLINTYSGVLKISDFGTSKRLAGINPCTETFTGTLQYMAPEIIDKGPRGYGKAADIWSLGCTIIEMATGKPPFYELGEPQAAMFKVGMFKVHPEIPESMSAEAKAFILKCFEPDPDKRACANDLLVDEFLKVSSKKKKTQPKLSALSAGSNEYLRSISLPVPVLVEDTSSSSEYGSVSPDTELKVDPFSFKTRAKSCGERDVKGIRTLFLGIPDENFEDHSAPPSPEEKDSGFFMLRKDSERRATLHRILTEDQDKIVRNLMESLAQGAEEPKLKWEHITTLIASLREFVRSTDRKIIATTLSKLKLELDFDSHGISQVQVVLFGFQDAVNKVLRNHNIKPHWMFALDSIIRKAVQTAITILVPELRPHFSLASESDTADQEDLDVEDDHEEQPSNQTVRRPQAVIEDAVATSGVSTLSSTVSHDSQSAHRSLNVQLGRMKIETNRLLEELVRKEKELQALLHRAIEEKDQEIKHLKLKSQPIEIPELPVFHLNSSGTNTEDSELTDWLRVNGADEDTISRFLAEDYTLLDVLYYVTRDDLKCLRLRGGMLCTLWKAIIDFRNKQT
Procedure: The recombinant human ASK1 protein was initiated by adding a mixture of Mg/ATP to the reaction solution (8 mM MOPS PH 7.0, 0.2 mM EDTA, 0.33 mg/mL myelin basic protein, 10 mM Mg Acetate and [gamma-33P]-ATP), and the reaction was terminated by adding 0.5% phosphoric acid after 40 min at room temperature.

[4] = MDR-MDCK cell membrane permeability assessment; type: in vitro ADME; conditions: dog; MDCK-MDR1 monolayer, 37° C., 2 hours
Procedure: (§2) MDCK-MDR1 cells (5×10^5 cells/mL) were incubated on a 24-transwell plate (Corning, NY, USA) for 4 days to measure permeability through a single layer of MDR-MDCK cells. The medium was replaced with a new medium every two days, and the electrical resistance between epithelial tissues (TEER) was measured using a Millicell® ERS-2 Volohmmeter (Merck KGaA, Darmstadt, Germany), and the cell membrane permeability test was performed after confirming that this value was greater than or equal to 300 Ohm.cm^2.
(§3) The apical and basolateral chambers were washed twice each in the order of Hanks' Balanced Salt Solution (HBSS) containing DPBS buffer and 10 mM Hydroxyethyl piperazine Ethane sulfonic acid (HEPES), and in the final washing step, HBSS was filled and maintained at a stable state at 37° C. for 30 minutes. After 30 minutes, the test material was instilled in each chamber and left at 37° C. for 2 hours, and the culture medium of the transferred layer was collected at 30-minute intervals, and the collected amount was supplemented with new HBSS.
(§4) The apparent permeability coefficient (Papp, cm/sec) was calculated using the following formula:
(§5) [formula] • Papp: Apparent permeability • dQ/dt: Permeability of the drug • A: Area of the filter membrane on which the cells are laid • C_0: Initial concentration of the drug
(§6) In addition, the Efflux ratio was calculated as follows: […]

MDR1 = assay: MDR-MDCK cell membrane permeability assessment; type: in vitro ADME; conditions: dog; MDCK-MDR1 monolayer
Procedure: as §2, §3, §4, §5, §6

Row | IC50 [3] | Papp A→B at 2 h [4] | Papp B→A at 2 h [4] | efflux ratio at 2 h (MDR1) | Compound | number of step errors (beam test) [1] | number of IBA-1 positive cells in the cerebral cortex [2]
1 |  |  |  |  | CC12CC3CC(C)(C1)CC(N)(C3)C2 [Memantine, reference compound] | significant reduction in the number of step errors compared to Group G2 | significantly reduced
2 | 92 nM | 57.3 ± 4.23 ×10⁻⁶ cm/s | 87.4 ± 3.39 ×10⁻⁶ cm/s | 1.53 | Cc1cc(F)c(C(=O)Nc2cccc(-n3nnc4c3CCCCC4)n2)cc1-n1cnc(C2CC2)c1 [Example 4, 5-(4-cyclopropyl-1H-imidazole-1-yl)-2-fluoro-4-methyl-N-(6-(5,6,7,8-tetrahydrocyclohepta[d][1,2,3]triazole-1 (4H)-yl)pyridine-2-yl)benzamide] |  | 
